Test results reported in the supplement of paper PMC10307832.

How the values were obtained:
Experiment in all cases: relative viability (nuclei count vs DMSO), 5 days (fraction); higher = more cells survive
SGI-1776 + Bortezomib = compound: CN1CCC(CNc2ccc3ncc(-c4cccc(OC(F)(F)F)c4)n3n2)CC1 [SGI-1776] + CC(C)C[C@H](NC(=O)[C@H](Cc1ccccc1)NC(=O)c1cnccn1)B(O)O [Bortezomib] (partner 0.002 µM)
How it was run: (§1)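 Lung cancer cell lines, seeded in 1536-well plates, were treated the following day by pin tool with a single drug or with five library-drug doses (not always all listed) in √10 steps on top of a fixed anchor-drug dose. Cells were fixed and nuclei stained in one step after 5 days, and nuclei were counted. Relative viability is the nuclei count for treated wells divided by that for vehicle wells, reported as medians of duplicate plates.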

SGI-1776 + Foretinib = compound: CN1CCC(CNc2ccc3ncc(-c4cccc(OC(F)(F)F)c4)n3n2)CC1 [SGI-1776] + COc1cc2c(Oc3ccc(NC(=O)C4(C(=O)Nc5ccc(F)cc5)CC4)cc3F)ccnc2cc1OCCCN1CCOCC1 [Foretinib] (partner 0.25 µM)
How it was run: as §1

[1] = compound: C1COCCN1C2=NC(=NC3=C2OC4=C3C=CC=N4)C5=CC(=CC=C5)NC(=O)C6=CN=C(C=C6)N + Nc1ncn([C@H]2C[C@H](O)[C@@H](CO)O2)c(=O)n1 [Decitabine] (partner 2 µM)
How it was run: as §1

LXF-289
relative viability (SGI-1776 + Bortezomib; first compound 0.08 µM): 1.03 | relative viability (SGI-1776 + Bortezomib; first compound 0.8 µM): 1.04 | relative viability (SGI-1776 + Bortezomib; first compound 2.53 µM): 1.02 | relative viability (SGI-1776 + Bortezomib; first compound 8 µM): 0.973 | relative viability (SGI-1776 + Foretinib; first compound 0.08 µM): 0.98 | relative viability (SGI-1776 + Foretinib; first compound 0.8 µM): 0.974 | relative viability (SGI-1776 + Foretinib; first compound 2.53 µM): 1.01 | relative viability (SGI-1776 + Foretinib; first compound 8 µM): 0.971 | relative viability ([1]; first compound 0.02 µM): 0.36 | relative viability ([1]; first compound 0.06325 µM): 0.438 | relative viability ([1]; first compound 0.2 µM): 0.329 | relative viability ([1]; first compound 0.6325 µM): 0.457 | relative viability ([1]; first compound 2 µM): 0.409

EKVX
relative viability (SGI-1776 + Bortezomib; first compound 0.08 µM): 0.98 | relative viability (SGI-1776 + Bortezomib; first compound 0.8 µM): 1.05 | relative viability (SGI-1776 + Bortezomib; first compound 2.53 µM): 1.14 | relative viability (SGI-1776 + Bortezomib; first compound 8 µM): 0.972 | relative viability (SGI-1776 + Foretinib; first compound 0.08 µM): 1.36 | relative viability (SGI-1776 + Foretinib; first compound 0.8 µM): 0.837 | relative viability (SGI-1776 + Foretinib; first compound 2.53 µM): 0.863 | relative viability (SGI-1776 + Foretinib; first compound 8 µM): 0.749 | relative viability ([1]; first compound 0.02 µM): 0.335 | relative viability ([1]; first compound 0.06325 µM): 0.321 | relative viability ([1]; first compound 0.2 µM): 0.325 | relative viability ([1]; first compound 0.6325 µM): 0.383 | relative viability ([1]; first compound 2 µM): 0.567

LC-2-ad
relative viability (SGI-1776 + Bortezomib; first compound 0.08 µM): 1.06 | relative viability (SGI-1776 + Bortezomib; first compound 0.8 µM): 0.976 | relative viability (SGI-1776 + Bortezomib; first compound 2.53 µM): 1.03 | relative viability (SGI-1776 + Bortezomib; first compound 8 µM): 0.987 | relative viability (SGI-1776 + Foretinib; first compound 0.08 µM): 0.999 | relative viability (SGI-1776 + Foretinib; first compound 0.8 µM): 0.922 | relative viability (SGI-1776 + Foretinib; first compound 2.53 µM): 0.934 | relative viability (SGI-1776 + Foretinib; first compound 8 µM): 0.685 | relative viability ([1]; first compound 0.02 µM): 0.881 | relative viability ([1]; first compound 0.06325 µM): 0.788 | relative viability ([1]; first compound 0.2 µM): 0.92 | relative viability ([1]; first compound 0.6325 µM): 0.835 | relative viability ([1]; first compound 2 µM): 0.618

ABC-1
relative viability (SGI-1776 + Bortezomib; first compound 0.08 µM): 0.299 | relative viability (SGI-1776 + Bortezomib; first compound 0.8 µM): 0.323 | relative viability (SGI-1776 + Bortezomib; first compound 2.53 µM): 0.364 | relative viability (SGI-1776 + Bortezomib; first compound 8 µM): 0.241 | relative viability (SGI-1776 + Foretinib; first compound 0.08 µM): 1.06 | relative viability (SGI-1776 + Foretinib; first compound 0.8 µM): 0.974 | relative viability (SGI-1776 + Foretinib; first compound 2.53 µM): 0.984 | relative viability (SGI-1776 + Foretinib; first compound 8 µM): 0.64 | relative viability ([1]; first compound 0.02 µM): 0.929 | relative viability ([1]; first compound 0.06325 µM): 1.07 | relative viability ([1]; first compound 0.2 µM): 0.98 | relative viability ([1]; first compound 0.6325 µM): 1.23 | relative viability ([1]; first compound 2 µM): 1.08

NCI-H596
relative viability (SGI-1776 + Bortezomib; first compound 0.08 µM): 0.924 | relative viability (SGI-1776 + Bortezomib; first compound 0.8 µM): 1.08 | relative viability (SGI-1776 + Bortezomib; first compound 2.53 µM): 0.95 | relative viability (SGI-1776 + Bortezomib; first compound 8 µM): 0.973 | relative viability (SGI-1776 + Foretinib; first compound 0.08 µM): 0.808 | relative viability (SGI-1776 + Foretinib; first compound 0.8 µM): 0.748 | relative viability (SGI-1776 + Foretinib; first compound 2.53 µM): 0.79 | relative viability (SGI-1776 + Foretinib; first compound 8 µM): 1.05 | relative viability ([1]; first compound 0.02 µM): 0.951 | relative viability ([1]; first compound 0.06325 µM): 0.971 | relative viability ([1]; first compound 0.2 µM): 1.15 | relative viability ([1]; first compound 2 µM): 1.07

NCI-H1734
relative viability (SGI-1776 + Bortezomib; first compound 0.08 µM): 0.903 | relative viability (SGI-1776 + Bortezomib; first compound 0.8 µM): 1.11 | relative viability (SGI-1776 + Bortezomib; first compound 2.53 µM): 0.88 | relative viability (SGI-1776 + Bortezomib; first compound 8 µM): 0.739 | relative viability (SGI-1776 + Foretinib; first compound 0.08 µM): 0.786 | relative viability (SGI-1776 + Foretinib; first compound 0.8 µM): 0.913 | relative viability (SGI-1776 + Foretinib; first compound 2.53 µM): 0.927 | relative viability (SGI-1776 + Foretinib; first compound 8 µM): 0.483 | relative viability ([1]; first compound 0.02 µM): 0.534 | relative viability ([1]; first compound 0.06325 µM): 0.575 | relative viability ([1]; first compound 0.2 µM): 0.482 | relative viability ([1]; first compound 0.6325 µM): 0.537 | relative viability ([1]; first compound 2 µM): 0.484

LOU-NH91
relative viability (SGI-1776 + Bortezomib; first compound 0.08 µM): 0.482 | relative viability (SGI-1776 + Bortezomib; first compound 0.8 µM): 0.565 | relative viability (SGI-1776 + Bortezomib; first compound 2.53 µM): 0.489 | relative viability (SGI-1776 + Bortezomib; first compound 8 µM): 0.458 | relative viability (SGI-1776 + Foretinib; first compound 0.08 µM): 1.06 | relative viability (SGI-1776 + Foretinib; first compound 0.8 µM): 0.893 | relative viability (SGI-1776 + Foretinib; first compound 2.53 µM): 0.926 | relative viability (SGI-1776 + Foretinib; first compound 8 µM): 0.762 | relative viability ([1]; first compound 0.02 µM): 0.792 | relative viability ([1]; first compound 0.06325 µM): 0.843 | relative viability ([1]; first compound 0.2 µM): 0.822 | relative viability ([1]; first compound 0.6325 µM): 0.794 | relative viability ([1]; first compound 2 µM): 0.746

NCI-H322M
relative viability (SGI-1776 + Bortezomib; first compound 0.08 µM): 1.3 | relative viability (SGI-1776 + Bortezomib; first compound 0.8 µM): 1.26 | relative viability (SGI-1776 + Bortezomib; first compound 2.53 µM): 1.21 | relative viability (SGI-1776 + Bortezomib; first compound 8 µM): 1.07 | relative viability (SGI-1776 + Foretinib; first compound 0.08 µM): 0.93 | relative viability (SGI-1776 + Foretinib; first compound 0.8 µM): 1.07 | relative viability (SGI-1776 + Foretinib; first compound 2.53 µM): 0.859 | relative viability (SGI-1776 + Foretinib; first compound 8 µM): 0.683 | relative viability ([1]; first compound 0.02 µM): 0.708 | relative viability ([1]; first compound 0.06325 µM): 0.64 | relative viability ([1]; first compound 0.2 µM): 0.695 | relative viability ([1]; first compound 0.6325 µM): 0.69 | relative viability ([1]; first compound 2 µM): 0.64

PC-3 [JPC-3]
relative viability (SGI-1776 + Bortezomib; first compound 0.08 µM): 0.867 | relative viability (SGI-1776 + Bortezomib; first compound 0.8 µM): 0.806 | relative viability (SGI-1776 + Bortezomib; first compound 2.53 µM): 0.845 | relative viability (SGI-1776 + Bortezomib; first compound 8 µM): 0.687 | relative viability (SGI-1776 + Foretinib; first compound 0.08 µM): 1.03 | relative viability (SGI-1776 + Foretinib; first compound 0.8 µM): 1.01 | relative viability (SGI-1776 + Foretinib; first compound 2.53 µM): 1.08 | relative viability (SGI-1776 + Foretinib; first compound 8 µM): 0.978 | relative viability ([1]; first compound 0.02 µM): 0.846 | relative viability ([1]; first compound 0.06325 µM): 0.8 | relative viability ([1]; first compound 0.6325 µM): 0.843 | relative viability ([1]; first compound 2 µM): 0.755

EPLC-272H
relative viability (SGI-1776 + Bortezomib; first compound 0.08 µM): 0.939 | relative viability (SGI-1776 + Bortezomib; first compound 0.8 µM): 1.06 | relative viability (SGI-1776 + Bortezomib; first compound 2.53 µM): 0.927 | relative viability (SGI-1776 + Bortezomib; first compound 8 µM): 0.739 | relative viability (SGI-1776 + Foretinib; first compound 0.08 µM): 0.82 | relative viability (SGI-1776 + Foretinib; first compound 0.8 µM): 0.66 | relative viability (SGI-1776 + Foretinib; first compound 2.53 µM): 0.768 | relative viability (SGI-1776 + Foretinib; first compound 8 µM): 0.528 | relative viability ([1]; first compound 0.02 µM): 0.329 | relative viability ([1]; first compound 0.2 µM): 0.386 | relative viability ([1]; first compound 0.6325 µM): 0.382 | relative viability ([1]; first compound 2 µM): 0.376

A-427
relative viability (SGI-1776 + Bortezomib; first compound 0.08 µM): 1.04 | relative viability (SGI-1776 + Bortezomib; first compound 0.8 µM): 1.03 | relative viability (SGI-1776 + Bortezomib; first compound 2.53 µM): 0.931 | relative viability (SGI-1776 + Bortezomib; first compound 8 µM): 0.749 | relative viability (SGI-1776 + Foretinib; first compound 0.08 µM): 1.15 | relative viability (SGI-1776 + Foretinib; first compound 0.8 µM): 1.17 | relative viability (SGI-1776 + Foretinib; first compound 2.53 µM): 0.972 | relative viability (SGI-1776 + Foretinib; first compound 8 µM): 0.983 | relative viability ([1]; first compound 0.02 µM): 0.588 | relative viability ([1]; first compound 0.06325 µM): 0.512 | relative viability ([1]; first compound 0.2 µM): 0.619 | relative viability ([1]; first compound 0.6325 µM): 0.679 | relative viability ([1]; first compound 2 µM): 0.579
